Assay results taken from US20250002450A1, “CATIONIC STEROID COMPOUNDS, METHOD OF OBTAINING THEREOF, FORMULATIONS COMPRISING THEREOF AND THEIR USES” (UNIVERSIDADE DO PORTO, priority 2021, published 2025).

Assays:
E. faecalis ATCC 29212 = test: Bacterial biofilm formation inhibition (crystal violet); assay type: cell-based, Enterococcus faecalis
Protocol: In an embodiment, the antibiofilm activity of compound 1 was performed as follows. Given its bactericidal effect, the impact of compound 1 on the biofilm formation of reference strains was studied.
The effect of compound 1 on bacterial biofilm formation was evaluated through quantification of total biomass, using the crystal violet method, as previously described ([FIG. 6]). […] A control with an appropriate concentration of DMSO, as well as a negative control (TSB alone) was included. Sterile 96-well flat-bottomed untreated polystyrene microtiter plates were used. After a 24 h incubation at 37 degrees C., the biofilms were heat-fixed for 1 h at 60 degrees C. and stained with 0.5% (v/v) crystal violet (Quimica Clinica Aplicada, Amposta, Spain) for 5 min. The stain was resolubilized with 33% (v/v) acetic acid (Acetic acid 100%, AppliChem, Darmstadt, Germany) and the biofilm biomass was quantified by measuring the absorbance of each sample at 570 nm in a microplate reader (Thermo Scientific Multiskan® EX, Thermo Fisher Scientific, Waltham, MA, USA). The background absorbance (TSB or TSB+1% glucose without inoculum) was subtracted from the absorbance of each sample and the data are presented as a percentage of control. Three independent assays were performed for reference strains, with triplicates for each experimental condition.

[1] = tested on: yeasts and filamentous fungi, including dermatophytes; test: Antifungal activity, whole strain panel; assay type: cell-based; details: all microorganisms tested (Table 2)
Protocol: The antifungal activity of compound 1 was evaluated for a wide range of fungal species, covering yeasts and filamentous fungi, including dermatophytes. […] This antimicrobial effect was fungicidal, with minimal lethal concentrations (MLC) being equal to, or one or two-fold higher than the respective MIC. Twenty-three fungal strains were used in this study, including reference strains and clinical isolates of yeasts and filamentous fungi. Yeast strains included reference strains (ATCC—American Type Culture Collection and CECT—Colección Española de Cultivos Tipo) and clinical isolates: C. albicans ATCC 10231, Candida krusei ATCC 6258, C. albicans H37, C. albicans FF172, C. albicans FF176, C. albicans DSY294, C. albicans DSY296, C. glabrata DSY562, C. glabrata DSY565 and Cryptococcus neoformans CECT 1078. […]
Antifungal activity was evaluated by determining the MIC of compound 1 by the broth microdilution method, according to CLSI guidelines (reference documents M27-A3 for yeasts and M38-A2 for filamentous fungi). […] The minimal lethal concentration (MLC) was determined by spreading 20 μL of culture collected from wells showing no visible growth on SDA plates. The MLC was determined as the lowest concentration showing complete growth inhibition after 48 h at 35 degrees C., 48 h at 25 degrees C. […]

Structure (SMILES): C[C@H](CCC(=O)NCCN)[C@H]1CC[C@H]2[C@@H]3CC[C@@H]4C[C@H](O)CC[C@]4(C)[C@H]3C[C@H](O)[C@]12C [Compound 1, (R)—N-(2-aminoethyl)-4-((3R,5R,8R,9S,10S,12S,13R,14S,17R)-3,12-dihydroxy-10,13-dimethylhexadecahydro-1H-cyclopenta[a]phenanthren-17-yl) pentanamida]
- biofilm formation (in words) (E. faecalis ATCC 29212; 2×MIC and MIC, 24 h): significantly inhibited
- minimal biofilm inhibitory concentration (MBIC) (E. faecalis ATCC 29212; 80% reduction of biofilm formation, E. faecalis ATCC 29212): < 4 µg/mL
- spectrum of antifungal activity (in words) [1]: active against all microorganisms tested
